From patent US7514254B2, “Plant-derived alkaline alpha-galactosidase” (The State of Israel, Ministry of Agriculture & Rural …, priority 1998, dated 2009)
Each block holds one compound with its values, some of them ahead of it.

Key:
[1] = tested on: melon (Cucumis melo) fruit acid form alpha-galactosidase; assay: Inhibition of acid alpha-galactosidase by galactose, pNPG as substrate; format: biochemical, muskmelon (Cucumis melo L. cv C-8)
Description: (§1) For routine analysis and monitoring the activity in the purification steps, alpha-galactosidase was assayed as described by Smart and Pharr (“Characterization of alpha-galactosidase from cucumber leaves”, Plant Physiology, 66:731-734, 1980), using p-nitrophenyl alpha-galactoside (pNPG) as substrate. […] The reaction was terminated after 10 min by adding 1 ml of 5% (w/v) Na2CO3 and activity expressed as nmol nitrophenol per min as measured at 410 nm. […] The assay was started by adding 50 μl enzyme preparation at 35 C and terminated after 10 to 20 min by 2 min boiling. […] For the partial purification of the acid form of alpha-galactosidase the fractions active at pH 5.5 were pooled and concentrated by reverse dialysis against solid sucrose. […] The active fractions were then desalted by dialysis against buffer A for 12 hours with two changes of the buffer. This enzyme fraction was used for the characterization of the acidic form of alpha-galactosidase. […] The substrate specificity of the alpha-galactosidases was tested with pNPG, stachyose, raffinose, melibiose or guar gum (Sigma).

[2] = tested on: Cucurbita pepo leaf alkaline alpha-galactosidase; settings: 6.4 mM galactose; 7.5 mM pNPG, pH 7.5; cited from earlier work
[3] = biological target: T1, melon (Cucumis melo) fruit alkaline alpha-galactosidase Form II (Cucumis melo, UniProt Q84NI6); assay: Inhibition of alkaline alpha-galactosidase Form II by galactose, pNPG as substrate; format: biochemical, muskmelon (Cucumis melo L. cv C-8)
T1 construct: native 102 kDa, denatured 92 kDa; assayed at pH 7.5
T1 sequence (Q84NI6 1-772): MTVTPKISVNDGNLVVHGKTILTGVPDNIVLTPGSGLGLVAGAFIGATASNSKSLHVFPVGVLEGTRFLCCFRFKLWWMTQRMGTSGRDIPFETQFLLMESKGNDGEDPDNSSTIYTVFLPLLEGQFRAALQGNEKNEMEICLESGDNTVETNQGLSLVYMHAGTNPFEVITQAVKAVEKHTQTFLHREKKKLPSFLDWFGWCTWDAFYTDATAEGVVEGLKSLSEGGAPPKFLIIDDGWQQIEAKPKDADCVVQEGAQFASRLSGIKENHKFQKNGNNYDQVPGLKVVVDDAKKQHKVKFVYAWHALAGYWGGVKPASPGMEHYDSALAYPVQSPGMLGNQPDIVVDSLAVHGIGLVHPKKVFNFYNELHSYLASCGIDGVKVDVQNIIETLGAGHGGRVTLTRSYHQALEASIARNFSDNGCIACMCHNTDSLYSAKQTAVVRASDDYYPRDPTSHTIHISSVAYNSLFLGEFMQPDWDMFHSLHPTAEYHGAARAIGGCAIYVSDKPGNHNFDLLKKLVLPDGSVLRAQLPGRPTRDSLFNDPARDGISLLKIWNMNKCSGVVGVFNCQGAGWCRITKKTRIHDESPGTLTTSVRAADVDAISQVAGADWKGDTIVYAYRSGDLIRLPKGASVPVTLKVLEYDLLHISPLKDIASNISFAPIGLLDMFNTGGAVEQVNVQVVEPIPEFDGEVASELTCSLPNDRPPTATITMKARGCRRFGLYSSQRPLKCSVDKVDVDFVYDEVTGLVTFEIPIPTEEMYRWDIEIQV
Description: (§2) For routine analysis and monitoring the activity in the purification steps, alpha-galactosidase was assayed as described by Smart and Pharr (“Characterization of alpha-galactosidase from cucumber leaves”, Plant Physiology, 66:731-734, 1980), using p-nitrophenyl alpha-galactoside (pNPG) as substrate. Reaction was initiated by adding 50 μl enzyme aliquot to either 200 μl 100 mM pH 5.5 McIlvaine buffer or 100 mM pH 7.5 HEPES buffer, containing 5 mM pNPG at 35 C. The reaction was terminated after 10 min by adding 1 ml of 5% (w/v) Na2CO3 and activity expressed as nmol nitrophenol per min as measured at 410 nm. […] The assay was started by adding 50 μl enzyme preparation at 35 C and terminated after 10 to 20 min by 2 min boiling.
The fractions from the DEAE-Sepharose chromatography which were active at pH 7.5 were pooled and dialyzed against buffer A for 12 h prior to loading onto an HPLC ion exchange chromatography column (Mono-Q HR 5/5, Pharmacia, Uppsala, Sweden), previously equilibrated with buffer A. Bound proteins were eluted with a linear gradient of 0.1 to 0.45 M NaCl and the active fractions were detected using pNPG as substrate at pH 7.5 as described above. […] For the further purification of Form II the active fractions of the peak II were chromatographed on hydrophobic interaction chromatography. The fractions were pooled, brought to 1 M (NH4)2SO4 and loaded on to a hydrophobic interaction column (phenyl-Sepharose CL-4B, 0.5×12 cm, Pharmacia, Uppsala, Sweden) previously equilibrated with buffer A containing 1 M (NH4)2SO4. The protein was eluted with a reverse stepwise gradient from 1 to 0 M (NH4)2SO4 with 50 mM intervals in buffer A. Fractions containing the activity peak were collected and dialyzed for 12 h against buffer A and the dialysate was concentrated by reverse dialysis against solid sucrose. The enzyme, partially purified by hydrophobic interaction chromatography, was used for the characterization of Form II. The active fractions from the hydrophobic interaction column were further purified. […]

[4] = biological target: T2, melon (Cucumis melo) fruit alkaline alpha-galactosidase Form I (Cucumis melo, UniProt Q84NI7); assay: Inhibition of alkaline alpha-galactosidase Form I by galactose, pNPG as substrate; format: biochemical, muskmelon (Cucumis melo L. cv C-8); parameters: native 84 kDa, denatured 79 kDa; assayed at pH 7.5
T2 sequence (Q84NI7 1-754): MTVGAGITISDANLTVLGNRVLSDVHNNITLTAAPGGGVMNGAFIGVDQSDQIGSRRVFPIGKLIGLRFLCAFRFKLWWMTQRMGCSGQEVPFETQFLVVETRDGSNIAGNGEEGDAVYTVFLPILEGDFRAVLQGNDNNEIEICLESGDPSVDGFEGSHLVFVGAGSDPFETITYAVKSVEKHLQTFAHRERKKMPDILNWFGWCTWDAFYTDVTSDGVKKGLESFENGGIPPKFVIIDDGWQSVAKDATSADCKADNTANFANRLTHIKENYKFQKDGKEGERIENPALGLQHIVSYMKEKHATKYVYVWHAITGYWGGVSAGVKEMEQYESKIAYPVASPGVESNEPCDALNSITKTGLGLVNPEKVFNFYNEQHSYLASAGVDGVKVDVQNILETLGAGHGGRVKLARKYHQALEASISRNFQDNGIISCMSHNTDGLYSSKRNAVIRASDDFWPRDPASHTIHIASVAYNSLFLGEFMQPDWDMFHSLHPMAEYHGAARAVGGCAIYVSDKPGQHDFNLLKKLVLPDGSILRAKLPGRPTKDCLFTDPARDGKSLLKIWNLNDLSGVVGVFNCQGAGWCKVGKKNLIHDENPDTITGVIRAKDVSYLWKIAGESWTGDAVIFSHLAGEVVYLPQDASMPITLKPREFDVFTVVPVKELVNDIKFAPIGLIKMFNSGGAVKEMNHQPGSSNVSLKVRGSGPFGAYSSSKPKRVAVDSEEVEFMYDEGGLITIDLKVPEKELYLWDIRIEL
Description: as §2
(§3) The fractions from the DEAE-Sepharose chromatography which were active at pH 7.5 were pooled and dialyzed against buffer A for 12 h prior to loading onto an HPLC ion exchange chromatography column (Mono-Q HR 5/5, Pharmacia, Uppsala, Sweden), previously equilibrated with buffer A. Bound proteins were eluted with a linear gradient of 0.1 to 0.45 M NaCl and the active fractions were detected using pNPG as substrate at pH 7.5 as described above. […] For the further purification of Form II the active fractions of the peak II were chromatographed on hydrophobic interaction chromatography. The fractions were pooled, brought to 1 M (NH4)2SO4 and loaded on to a hydrophobic interaction column (phenyl-Sepharose CL-4B, 0.5×12 cm, Pharmacia, Uppsala, Sweden) previously equilibrated with buffer A containing 1 M (NH4)2SO4. The protein was eluted with a reverse stepwise gradient from 1 to 0 M (NH4)2SO4 with 50 mM intervals in buffer A. Fractions containing the activity peak were collected and dialyzed for 12 h against buffer A and the dialysate was concentrated by reverse dialysis against solid sucrose. The enzyme, partially purified by hydrophobic interaction chromatography, was used for the characterization of Form II. The active fractions from the hydrophobic interaction column were further purified. Active fractions were separated electrophoretically using a Mini Prep Cell (Bio-Rad Laboratories, Hercules, Calif.) for discontinuous native-PAGE with 7% polyacrylamide, according to manufacturer's instructions. Fractions (0.25 ml/fraction) were assayed at pH 7.5 with pNPG as substrate for the activity. The active fractions were pooled, concentrated by Vivaspin Concentrator (Vivascience LTD, Lincoln, England), and run in a 8% SDS-PAGE. Proteins in the SDS-PAGE were identified using Coomassie Blue staining.
(§4) Therefore, the active fractions from the Mono-Q column were used for the characterization of Form I. In addition, the Form I enzyme was further purified, as described in the following section.

[5] = tested on: Cucurbita pepo leaf alkaline alpha-galactosidase ("LIV" enzyme); assay: Substrate kinetics of Cucurbita pepo leaf alkaline alpha-galactosidase (Gaudreault and Webb); format: biochemical; settings: calculated for prior art "LIV" enzyme of Gaudreault and Webb
[6] = tested on: Cucurbita pepo leaf alkaline alpha-galactosidase ("LIV" enzyme); settings: Gaudreault and Webb; alkaline form; cited from earlier work
[7] = biological target: T2, melon (Cucumis melo) fruit alkaline alpha-galactosidase Form I; assay: Substrate kinetics (Lineweaver-Burk) of alkaline alpha-galactosidase Form I
Description: as §2, §3, §4

[8] = tested on: Pseudomonas fluorescens H-601 alpha-galactosidase; settings: Hashimoto et al. 1991; relative Km values; cited from earlier work
[9] = tested on: melon (Cucumis melo) fruit acid form alpha-galactosidase; assay: Substrate kinetics (Lineweaver-Burk) of acid alpha-galactosidase; format: biochemical, muskmelon (Cucumis melo L. cv C-8)
Description: as §1

[10] = biological target: T1, melon (Cucumis melo) fruit alkaline alpha-galactosidase Form II; assay: Inhibition of alkaline alpha-galactosidase Form II by alternative substrate (galactose release); format: biochemical, muskmelon (Cucumis melo L. cv C-8); settings: read-out: inhibition by excess raffinose (galactose release)
Description: as §2

[11] = tested on: Escherichia coli K12 alpha-galactosidase; settings: Schmid and Schmitt 1976; cited from earlier work
[12] = biological target: T1, melon (Cucumis melo) fruit alkaline alpha-galactosidase Form II; assay: Substrate kinetics (Lineweaver-Burk) of alkaline alpha-galactosidase Form II; format: biochemical, muskmelon (Cucumis melo L. cv C-8)
Description: as §2, §3

reduction in activity by galactose ([1]; 8 mM galactose, 10 mM pNPG): 65%
inhibition type (galactose) ([1]; Lineweaver-Burk): competitive
Ki ([1]; competitive, Lineweaver-Burk): 60 µM
inhibition at 8000 µM ([3]; 8 mM galactose, 10 mM pNPG, read-out: reduction in activity by galactose): 70%
inhibition type (galactose) ([3]; Lineweaver-Burk): competitive
Ki ([3]; competitive, Lineweaver-Burk): 1300 µM
inhibition at 8000 µM ([4]; 8 mM galactose, 10 mM pNPG, alkaline Form I): 8%
inhibition type (galactose) ([4]; alkaline Form I, Lineweaver-Burk): competitive
Ki ([4]; alkaline Form I, competitive, Lineweaver-Burk): 13000 µM
inhibition of catalytic activity by galactose (in words) ([4]; alkaline alpha galactosidase of the invention, FIG. 4D-F): no inhibition of catalytic activity
Structure (SMILES): OC[C@H]1O[C@H](O)[C@H](O)[C@@H](O)[C@H]1O [galactose, alpha-D-galactose]
reduction of reaction velocity by galactose [2]: 50%

Vmax/Km ratio [5]: 0.0039
Vmax/Km ratio [7]: 0.37
Km ([7]; Lineweaver-Burk): < 5 mM
Vmax ([7]; Lineweaver-Burk): 0.56 μmol mg^−1 protein min^−1
Vmax/Km ratio [9]: 0.17
Km ([9]; Lineweaver-Burk): 4.2 mM
Vmax ([9]; Lineweaver-Burk): 0.71 μmol mg^−1 protein min^−1
inhibition at 80000 µM [10]: 35%
Vmax/Km ratio [12]: 0.01
Vmax ([12]; Lineweaver-Burk): 0.28 μmol mg^−1 protein min^−1
Structure (SMILES): OC[C@H]1O[C@H](OC[C@H]2O[C@H](O[C@]3(CO)O[C@H](CO)[C@@H](O)[C@@H]3O)[C@H](O)[C@@H](O)[C@@H]2O)[C@H](O)[C@@H](O)[C@H]1O [Raffinose, O-alpha-D-galactopyranosyl-(1-6)-O-alpha-D-glucopyranosyl-(1-2)-beta-D-fructofuranoside]
Km [6]: 36.4 mM
Km [8]: 17 mM
Km [11]: 60 mM
